Usually IC50 stands for the midpoint of a concentration-inhibition curve.

In patent publication US11987588B2, “Modulators of the beta-3 adrenergic receptor useful for the treatment or prevention of heart failure and disorders related thereto” (Arena Pharmaceuticals, Inc., priority 2017, dated 2024) one finds IC50 data, which are given here for 26 molecules.

The structures appear in SMILES notation.

The target of the assay is Beta-3 Adrenergic Receptor (Homo sapiens (Human), UniProt P13945). Put plainly: Homogeneous Time-Resolved Fluorescence (HTRF) cAMP antagonist assay, IC50 determination. It counts as cell-based. Conditions: CHO-K1 cells stably expressing recombinant receptor, isoproterenol at EC90. In outline: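 Antagonist mode: isoproterenol at its predetermined EC90 added after compound to recombinant CHO-K1 cells in IBMX-containing PBS, 1 h, room temperature. Compounds tested as 5-fold, 10-point dilutions, top final typically 10 or 100 μM. HTRF signal converted to cAMP via standard curve, giving IC50.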
A general note: Time-resolved FRET reads energy transfer from a long-lived donor to a nearby acceptor.

Sequence of Beta-3 Adrenergic Receptor (P13945 whole entry, species assumed): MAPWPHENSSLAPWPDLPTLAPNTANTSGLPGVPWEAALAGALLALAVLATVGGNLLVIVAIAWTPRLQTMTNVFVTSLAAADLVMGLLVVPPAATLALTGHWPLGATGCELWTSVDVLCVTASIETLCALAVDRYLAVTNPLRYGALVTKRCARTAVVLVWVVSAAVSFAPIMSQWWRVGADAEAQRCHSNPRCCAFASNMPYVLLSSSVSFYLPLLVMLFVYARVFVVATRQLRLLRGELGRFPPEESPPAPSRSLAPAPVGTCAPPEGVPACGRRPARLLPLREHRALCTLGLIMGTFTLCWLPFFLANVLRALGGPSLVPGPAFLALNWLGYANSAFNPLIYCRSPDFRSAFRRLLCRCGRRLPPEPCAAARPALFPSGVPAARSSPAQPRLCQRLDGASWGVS

As for `CNS(=O)(=O)c1cccc(OC[C@@H](O)CN[C@@H]2COC3(CCN(S(=O)(=O)c4cncc(-c5ccc(CN)cc5)c4)CC3)C2)c1` [Compound 374, 3-((S)-3-((S)-8-(5-(4-(aminomethyl)phenyl)pyridin-3-ylsulfonyl)-1-oxa-8-azaspiro[4.5]decan-3-ylamino)-2-hydroxypropoxy)-N-methylbenzenesulfonamide], the IC50 amounted to 15.7 nM.
The figure for `CNS(=O)(=O)c1cccc(OC[C@@H](O)CN[C@@H]2COC3(CCN(S(=O)(=O)c4cnn(-c5ccccc5)c4C)CC3)C2)c1` [Compound 280, 3-((S)-2-hydroxy-3-((S)-8-(5-methyl-1-phenyl-1H-pyrazol-4-ylsulfonyl)-1-oxa-8-azaspiro[4.5]decan-3-ylamino)propoxy)-N-methylbenzenesulfonamide] is 98 nM.
The figure for `CCn1cc(S(=O)(=O)N2CCC3(CC2)C[C@@H](NC[C@H](O)COc2cccc(S(=O)(=O)NC)c2)CO3)c(=O)c2ccccc21` [Compound 492, 3-((S)-3-((R)-8-(1-ethyl-4-oxo-1,4-dihydroquinolin-3-ylsulfonyl)-1-oxa-8-azaspiro[4.5]decan-3-ylamino)-2-hydroxypropoxy)-N-methylbenzenesulfonamide] is 33 nM; for `CNS(=O)(=O)c1cccc(OC[C@@H](O)CNC2COC3(CCN(S(=O)(=O)c4cccc(CO)c4)CC3)C2)c1` (stereo partly drawn) [Compound 390, 3-((2S)-2-hydroxy-3-(8-(3-(hydroxymethyl)phenylsulfonyl)-1-oxa-8-azaspiro[4.5]decan-3-ylamino)propoxy)-N-methylbenzenesulfonamide] it is 153 nM.
For the molecule `CNS(=O)(=O)c1cccc(OC[C@@H](O)CNC2COC3(CCN(S(=O)(=O)c4ccc5c(c4)CCC(C)(C)O5)CC3)C2)c1` (stereo partly drawn) [Compound 127, 3-((2S)-3-(8-(2,2-dimethylchroman-6-ylsulfonyl)-1-oxa-8-azaspiro[4.5]decan-3-ylamino)-2-hydroxypropoxy)-N-methylbenzenesulfonamide], the IC50 is 14.9 nM.
The figure for `COCCNS(=O)(=O)c1cccc(OC[C@@H](O)CN[C@H]2COC3(CCN(S(=O)(=O)c4cnc5c(c4)N(C)CCO5)CC3)C2)c1` [Compound 459, 3-((S)-2-hydroxy-3-((R)-8-(1-methyl-2,3-dihydro-1H-pyrido[2,3-b][1,4]oxazin-7-ylsulfonyl)-1-oxa-8-azaspiro[4.5]decan-3-ylamino)propoxy)-N-(2-methoxyethyl)benzenesulfonamide] is 160 nM; for `CNS(=O)(=O)c1cccc(OC[C@@H](O)CNC2COC3(CCN(S(=O)(=O)c4c(Cl)ccc5nsnc45)CC3)C2)c1` (stereo partly drawn) [Compound 197, 3-((2S)-3-(8-(5-chlorobenzo[c][1,2,5]thiadiazol-4-ylsulfonyl)-1-oxa-8-azaspiro[4.5]decan-3-ylamino)-2-hydroxypropoxy)-N-methylbenzenesulfonamide] it is 12.8 nM; for `NS(=O)(=O)c1cccc(OC[C@@H](O)CN[C@H]2COC3(CCN(S(=O)(=O)c4cnc5cc[nH]c5c4)CC3)C2)c1` [Compound 532, 3-((S)-3-((R)-8-(1H-pyrrolo[3,2-b]pyridin-6-ylsulfonyl)-1-oxa-8-azaspiro[4.5]decan-3-ylamino)-2-hydroxypropoxy)benzenesulfonamide] it is 12.7 nM.
Next, `CNS(=O)(=O)c1cccc(OC[C@@H](O)CN[C@H]2COC3(CCN(c4nc(OC)cc(OC)n4)CC3)C2)c1` [Compound 584, 3-((S)-3-((R)-8-(4,6-dimethoxypyrimidin-2-yl)-1-oxa-8-azaspiro[4.5]decan-3-ylamino)-2-hydroxypropoxy)-N-methylbenzenesulfonamide]: 266 nM; `CNS(=O)(=O)c1cccc(OC[C@@H](O)CN[C@H]2COC3(CCN(c4nccc(C)n4)CC3)C2)c1` [Compound 575, 3-((S)-2-hydroxy-3-((R)-8-(4-methylpyrimidin-2-yl)-1-oxa-8-azaspiro[4.5]decan-3-ylamino)propoxy)-N-methylbenzenesulfonamide]: 216 nM; `CNS(=O)(=O)c1cccc(OC[C@@H](O)CNC2COC3(CCN(S(=O)(=O)CCc4ccncc4)CC3)C2)c1` (stereo partly drawn) [Compound 378, 3-((2S)-2-hydroxy-3-(8-(2-(pyridin-4-yl)ethylsulfonyl)-1-oxa-8-azaspiro[4.5]decan-3-ylamino)propoxy)-N-methylbenzenesulfonamide]: 131 nM.
Next, `CNS(=O)(=O)c1cccc(OC[C@@H](O)CNC2COC3(CCN(S(=O)(=O)Cc4ccccc4)CC3)C2)c1` (stereo partly drawn) [Compound 172, 3-((2S)-3-(8-(benzylsulfonyl)-1-oxa-8-azaspiro[4.5]decan-3-ylamino)-2-hydroxypropoxy)-N-methylbenzenesulfonamide]: 78.9 nM; `Cc1nc2cc(S(=O)(=O)N3CCC4(CC3)C[C@@H](NC[C@H](O)COc3cccc(S(N)(=O)=O)c3)CO4)cnc2[nH]1` [Compound 559, 3-((S)-2-hydroxy-3-((R)-8-(2-methyl-3H-imidazo[4,5-b]pyridin-6-ylsulfonyl)-1-oxa-8-azaspiro[4.5]decan-3-ylamino)propoxy)benzenesulfonamide]: 34.7 nM; `NS(=O)(=O)c1cccc(OC[C@@H](O)CN[C@H]2COC3(CCN(S(=O)(=O)c4ccc5ccccc5c4)CC3)C2)c1` [Compound 560, 3-((S)-2-hydroxy-3-((R)-8-(naphthalen-2-ylsulfonyl)-1-oxa-8-azaspiro[4.5]decan-3-ylamino)propoxy)benzenesulfonamide]: 19.2 nM.
As for `CCNS(=O)(=O)c1cccc(OC[C@@H](O)CNC2COC3(CCN(S(=O)(=O)c4ccc(Cl)c5nonc45)CC3)C2)c1` (stereo partly drawn) [Compound 235, 3-((2S)-3-(8-(7-chlorobenzo[c][1,2,5]oxadiazol-4-ylsulfonyl)-1-oxa-8-azaspiro[4.5]decan-3-ylamino)-2-hydroxypropoxy)-N-ethylbenzenesulfonamide], the IC50 was found to be 108 nM.
The figure for `CCNS(=O)(=O)c1cccc(OC[C@@H](O)CNC2COC3(CCN(S(=O)(=O)c4cc(C)ccc4F)CC3)C2)c1` (stereo partly drawn) [Compound 226, N-ethyl-3-((2S)-3-(8-(2-fluoro-5-methylphenylsulfonyl)-1-oxa-8-azaspiro[4.5]decan-3-ylamino)-2-hydroxypropoxy)benzenesulfonamide] is 155 nM; for `CNS(=O)(=O)c1cccc(OC[C@@H](O)CNC2COC3(CCN(S(=O)(=O)c4cccc(-c5cccc(CO)c5)c4)CC3)C2)c1` (stereo partly drawn) [Compound 118, 3-((2S)-2-hydroxy-3-(8-(3′-(hydroxymethyl)biphenyl-3-ylsulfonyl)-1-oxa-8-azaspiro[4.5]decan-3-ylamino)propoxy)-N-methylbenzenesulfonamide] it is 24.1 nM; for `CNS(=O)(=O)c1cccc(OC[C@@H](O)CN[C@H]2COC3(CCN(c4ncc(C(F)(F)F)cn4)CC3)C2)c1` [Compound 583, 3-((S)-2-hydroxy-3-((R)-8-(5-(trifluoromethyl)pyrimidin-2-yl)-1-oxa-8-azaspiro[4.5]decan-3-ylamino)propoxy)-N-methylbenzenesulfonamide] it is 1840 nM.
Next, `NS(=O)(=O)c1cccc(OC[C@@H](O)CN[C@H]2COC3(CCN(S(=O)(=O)c4cnc5ccccc5c4)CC3)C2)c1` [Compound 562, 3-((S)-2-hydroxy-3-((R)-8-(quinolin-3-ylsulfonyl)-1-oxa-8-azaspiro[4.5]decan-3-ylamino)propoxy)benzenesulfonamide]: 16.3 nM; `CNS(=O)(=O)c1cccc(OC[C@@H](O)CNC2COC3(CCN(S(=O)(=O)c4ccc5nc[nH]c5c4)CC3)C2)c1` (stereo partly drawn) [Compound 146, 3-((2S)-3-(8-(1H-benzo[d]imidazol-6-ylsulfonyl)-1-oxa-8-azaspiro[4.5]decan-3-ylamino)-2-hydroxypropoxy)-N-methylbenzenesulfonamide]: 36.2 nM; `CN1CCOc2ccc(S(=O)(=O)N3CCC4(CC3)CC(NC[C@H](O)COc3cccc(S(=O)(=O)N(C)C)c3)CO4)cc21` (stereo partly drawn) [Compound 256, 3-((2S)-2-hydroxy-3-(8-(4-methyl-3,4-dihydro-2H-benzo[b][1,4]oxazin-6-ylsulfonyl)-1-oxa-8-azaspiro[4.5]decan-3-ylamino)propoxy)-N,N-dimethylbenzenesulfonamide]: 21.1 nM.
Consider `NS(=O)(=O)c1cccc(OC[C@@H](O)CNC2COC3(CCN(S(=O)(=O)c4ccc5ccccc5c4)CC3)C2)c1` (stereo partly drawn) [Compound 306, 3-((2S)-2-hydroxy-3-(8-(naphthalen-2-ylsulfonyl)-1-oxa-8-azaspiro[4.5]decan-3-ylamino)propoxy)benzenesulfonamide], for which the IC50 was 65.4 nM.
The figure for `CNS(=O)(=O)c1cccc(OC[C@@H](O)CN[C@H]2COC3(CCN(S(=O)(=O)c4cnc5[nH]cc(C(F)(F)F)c5c4)CC3)C2)c1` [Compound 509, 3-((S)-2-hydroxy-3-((R)-8-(3-(trifluoromethyl)-1H-pyrrolo[2,3-b]pyridin-5-ylsulfonyl)-1-oxa-8-azaspiro[4.5]decan-3-ylamino)propoxy)-N-methylbenzenesulfonamide] is 6.95 nM; for `CNS(=O)(=O)c1cccc(OC[C@@H](O)CNC2COC3(CCN(S(=O)(=O)c4cccc(-c5ccc(CN)s5)c4)CC3)C2)c1` (stereo partly drawn) [Compound 369, 3-((2S)-3-(8-(3-(5-(aminomethyl)thiophen-2-yl)phenylsulfonyl)-1-oxa-8-azaspiro[4.5]decan-3-ylamino)-2-hydroxypropoxy)-N-methylbenzenesulfonamide] it is 14.6 nM; for `CCCn1cc(-c2cccc(S(=O)(=O)N3CCC4(CC3)CC(NC[C@H](O)COc3cccc(S(=O)(=O)NC)c3)CO4)c2)cn1` (stereo partly drawn) [Compound 80, 3-((2S)-2-hydroxy-3-(8-(3-(1-propyl-1H-pyrazol-4-yl)phenylsulfonyl)-1-oxa-8-azaspiro[4.5]decan-3-ylamino)propoxy)-N-methylbenzenesulfonamide] it is 14.3 nM.
In the case of `CNS(=O)(=O)c1cccc(OC[C@@H](O)CNC2COC3(CCN(S(=O)(=O)c4ccc(OC)cc4C)CC3)C2)c1` (stereo partly drawn) [Compound 236, 3-((2S)-2-hydroxy-3-(8-(4-methoxy-2-methylphenylsulfonyl)-1-oxa-8-azaspiro[4.5]decan-3-ylamino)propoxy)-N-methylbenzenesulfonamide], the IC50 turned out to be 54.9 nM.
